Test results reported in PMC7101356, “Cross-site and cross-platform variability of automated patch clamp assessments of drug effects on human cardiac currents in recombinant cells” (Scientific Reports, 2020).
Read-outs that look alike come from different tables or passages of the source.

How the values were obtained:
[1] = molecular target: T1, peak hNav1.5 (Homo sapiens, UniProt Q14524); experiment: Automated patch clamp, peak hNav1.5 current block; assay type: cell-based
T1 construct: expressed in transfected cells; host or cells: HEK293 or CHO, depending on site
Procedure: Peak current was measured during the depolarizing step to −15 mV. Leak current was measured after applying a saturating concentration of a blocker such as lidocaine (2 mM) at the end of each experiment to completely block hNav1.5 current.
Concentration-response relationships for each test article were independently investigated, i.e., each cell received only one test article, typically evaluating multiple concentrations in a cumulative fashion (lowest to highest concentrations). However, some platforms tested only one concentration per well. Each concentration response was based on a minimum of four concentrations, with a minimum of three wells used for each concentration. In cases of high variability, more cells per concentration were recorded. Prior to drug addition, cells received an addition of vehicle to measure non-test article-related effects such as addition artifacts. At the end of the experiment, a supramaximal concentration of a known inhibitory reference compound was applied to assess leak current and appropriate responsiveness of the test system.
(§1) The steady state current at each concentration was used to determine the concentration-response relationships. Mean concentration-response data were fitted to a standard sigmoidal four-parameter logistic equation (GraphPad Prism 7; GraphPad Inc., La Jolla, CA) of the form: Y=Bottom+(Top−Bottom)/(1+10^∧(LogIC50−X)∗HillSlope) where Y is the current inhibition (in % of pre-drug control), X is the logarithm of drug concentration, and IC50 is the drug concentration producing half-maximal current inhibition. Curve fitting was performed using the following constraints: Top = 100%, Bottom = 0%, Hill Slope <2. No curve fitting was performed in cases with an obvious lack of a concentration-dependent current inhibition and/or small effect size (approximately ≤20%).

[2] = molecular target: T2, late hNav1.5 (Homo sapiens, UniProt Q14524); experiment: Automated patch clamp, late hNav1.5 current block (ATX-II activated); assay type: cell-based
T2 construct: expressed in transfected cells; host or cells: HEK293 or CHO, depending on site

[3] = based on CiPA evaluations; cited from earlier work
[4] = molecular target: hCav1.2 (Homo sapiens, UniProt Q13936); experiment: Automated patch clamp, hCav1.2 current block
Procedure: Peak current was measured during the step to 0 mV. Leak current was measured after applying a saturating concentration of a blocker such as cadmium (200 µM) at the end of each experiment to completely block hCav1.2 current.
Concentration-response relationships for each test article were independently investigated, i.e., each cell received only one test article, typically evaluating multiple concentrations in a cumulative fashion (lowest to highest concentrations). However, some platforms tested only one concentration per well. Each concentration response was based on a minimum of four concentrations, with a minimum of three wells used for each concentration. In cases of high variability, more cells per concentration were recorded. Prior to drug addition, cells received an addition of vehicle to measure non-test article-related effects such as addition artifacts. At the end of the experiment, a supramaximal concentration of a known inhibitory reference compound was applied to assess leak current and appropriate responsiveness of the test system. While it was recommended that a separate group of cells (n ≥ 3) be recorded for each experimental day to determine the baseline response to vehicle and to address day-to-day variability, this was not verified.
These criteria were applied to all APC platforms.
as §1

[5] = molecular target: hERG (Homo sapiens, UniProt Q12809); experiment: Automated patch clamp, hERG current block (consensus step-ramp protocol); conditions: human, hERG K+ current inhibition, Mean, 1.00E-08 mol/L
[6] = site_platform s06_p4, 1.00E-08 mol/L
[7] = site_platform s06_p4, 3.00E-07 mol/L
[8] = site_platform s07_p6, 1.00E-08 mol/L
[9] = site_platform s07_p6, 3.00E-07 mol/L
[10] = site_platform s13_p2, 1.00E-08 mol/L
[11] = site_platform s13_p2, 3.00E-07 mol/L
[12] = site_platform s14_p1, 1.00E-08 mol/L
[13] = site_platform s14_p1, 3.00E-07 mol/L

hCav1.2, sequence (Q13936 whole entry): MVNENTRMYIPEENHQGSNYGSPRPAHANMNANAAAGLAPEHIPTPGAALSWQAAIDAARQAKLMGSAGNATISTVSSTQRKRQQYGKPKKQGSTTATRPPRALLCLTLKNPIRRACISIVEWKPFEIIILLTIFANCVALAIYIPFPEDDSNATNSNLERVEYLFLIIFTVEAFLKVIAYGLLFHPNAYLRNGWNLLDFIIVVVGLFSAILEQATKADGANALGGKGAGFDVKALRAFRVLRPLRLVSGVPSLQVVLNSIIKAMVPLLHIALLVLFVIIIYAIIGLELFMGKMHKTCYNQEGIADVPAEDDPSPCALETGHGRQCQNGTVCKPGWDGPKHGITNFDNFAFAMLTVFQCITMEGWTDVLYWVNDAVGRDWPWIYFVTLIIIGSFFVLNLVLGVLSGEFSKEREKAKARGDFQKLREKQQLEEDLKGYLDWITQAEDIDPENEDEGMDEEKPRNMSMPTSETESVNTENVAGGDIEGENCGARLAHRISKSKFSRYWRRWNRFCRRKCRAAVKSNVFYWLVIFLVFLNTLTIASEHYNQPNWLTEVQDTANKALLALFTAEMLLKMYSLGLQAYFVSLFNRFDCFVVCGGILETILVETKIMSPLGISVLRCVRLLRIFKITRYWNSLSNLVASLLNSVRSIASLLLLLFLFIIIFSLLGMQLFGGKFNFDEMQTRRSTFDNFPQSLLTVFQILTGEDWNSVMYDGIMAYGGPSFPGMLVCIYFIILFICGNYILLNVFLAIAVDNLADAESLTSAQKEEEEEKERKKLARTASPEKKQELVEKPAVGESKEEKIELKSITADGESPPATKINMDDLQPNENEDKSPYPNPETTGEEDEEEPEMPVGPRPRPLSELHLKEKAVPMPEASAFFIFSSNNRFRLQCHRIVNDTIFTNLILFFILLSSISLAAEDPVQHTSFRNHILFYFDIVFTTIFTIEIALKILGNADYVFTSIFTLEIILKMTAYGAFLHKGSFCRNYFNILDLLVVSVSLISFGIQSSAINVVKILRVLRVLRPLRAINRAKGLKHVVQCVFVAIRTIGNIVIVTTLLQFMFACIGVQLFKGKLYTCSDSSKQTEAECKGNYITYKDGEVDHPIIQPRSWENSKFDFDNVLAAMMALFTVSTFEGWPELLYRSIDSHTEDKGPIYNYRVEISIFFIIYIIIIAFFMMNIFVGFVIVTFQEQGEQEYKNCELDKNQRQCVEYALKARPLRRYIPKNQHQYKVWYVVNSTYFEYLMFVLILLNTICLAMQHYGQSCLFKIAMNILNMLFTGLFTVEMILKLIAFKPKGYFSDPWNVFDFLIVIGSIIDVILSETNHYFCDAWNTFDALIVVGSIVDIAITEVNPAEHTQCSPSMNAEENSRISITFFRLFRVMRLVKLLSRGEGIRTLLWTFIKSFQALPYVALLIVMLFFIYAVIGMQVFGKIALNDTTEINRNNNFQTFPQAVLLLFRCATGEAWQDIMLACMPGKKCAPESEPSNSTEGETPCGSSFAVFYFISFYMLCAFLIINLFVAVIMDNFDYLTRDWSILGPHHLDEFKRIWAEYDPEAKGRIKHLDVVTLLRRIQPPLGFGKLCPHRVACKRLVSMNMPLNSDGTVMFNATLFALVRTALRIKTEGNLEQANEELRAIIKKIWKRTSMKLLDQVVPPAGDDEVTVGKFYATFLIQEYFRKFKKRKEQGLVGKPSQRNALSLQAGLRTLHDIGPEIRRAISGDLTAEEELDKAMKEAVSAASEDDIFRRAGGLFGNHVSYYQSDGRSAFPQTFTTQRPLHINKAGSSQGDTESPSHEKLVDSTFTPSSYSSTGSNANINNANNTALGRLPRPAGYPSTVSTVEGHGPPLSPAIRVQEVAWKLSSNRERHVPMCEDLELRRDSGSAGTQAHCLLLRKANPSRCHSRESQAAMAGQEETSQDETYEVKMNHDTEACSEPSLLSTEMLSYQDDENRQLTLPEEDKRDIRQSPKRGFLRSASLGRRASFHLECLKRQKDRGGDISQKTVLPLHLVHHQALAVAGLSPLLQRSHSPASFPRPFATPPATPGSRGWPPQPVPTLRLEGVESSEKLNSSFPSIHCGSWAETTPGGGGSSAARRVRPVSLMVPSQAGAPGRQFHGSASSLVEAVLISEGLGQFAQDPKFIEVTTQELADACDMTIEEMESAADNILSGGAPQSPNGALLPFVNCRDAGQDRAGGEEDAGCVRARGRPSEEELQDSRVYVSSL
hCav1.2, sequence (Q08289 whole entry partner): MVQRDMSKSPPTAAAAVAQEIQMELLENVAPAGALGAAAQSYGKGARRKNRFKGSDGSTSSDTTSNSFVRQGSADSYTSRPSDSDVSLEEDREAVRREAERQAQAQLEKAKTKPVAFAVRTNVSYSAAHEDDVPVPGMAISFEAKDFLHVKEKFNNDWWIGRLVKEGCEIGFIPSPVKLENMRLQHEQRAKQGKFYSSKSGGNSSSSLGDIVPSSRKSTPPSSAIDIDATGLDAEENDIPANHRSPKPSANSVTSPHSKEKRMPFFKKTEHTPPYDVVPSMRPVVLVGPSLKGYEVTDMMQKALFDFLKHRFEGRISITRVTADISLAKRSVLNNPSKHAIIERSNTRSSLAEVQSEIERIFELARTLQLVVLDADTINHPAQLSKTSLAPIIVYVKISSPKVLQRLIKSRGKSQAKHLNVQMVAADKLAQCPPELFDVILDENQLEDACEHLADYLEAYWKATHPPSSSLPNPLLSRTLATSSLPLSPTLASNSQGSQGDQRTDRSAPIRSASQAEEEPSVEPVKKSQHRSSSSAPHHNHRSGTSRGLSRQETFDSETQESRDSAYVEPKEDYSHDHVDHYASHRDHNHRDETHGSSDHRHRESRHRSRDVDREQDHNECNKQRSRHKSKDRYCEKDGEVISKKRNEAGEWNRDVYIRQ
hCav1.2, sequence (P54289 25-956 partner limits assumed): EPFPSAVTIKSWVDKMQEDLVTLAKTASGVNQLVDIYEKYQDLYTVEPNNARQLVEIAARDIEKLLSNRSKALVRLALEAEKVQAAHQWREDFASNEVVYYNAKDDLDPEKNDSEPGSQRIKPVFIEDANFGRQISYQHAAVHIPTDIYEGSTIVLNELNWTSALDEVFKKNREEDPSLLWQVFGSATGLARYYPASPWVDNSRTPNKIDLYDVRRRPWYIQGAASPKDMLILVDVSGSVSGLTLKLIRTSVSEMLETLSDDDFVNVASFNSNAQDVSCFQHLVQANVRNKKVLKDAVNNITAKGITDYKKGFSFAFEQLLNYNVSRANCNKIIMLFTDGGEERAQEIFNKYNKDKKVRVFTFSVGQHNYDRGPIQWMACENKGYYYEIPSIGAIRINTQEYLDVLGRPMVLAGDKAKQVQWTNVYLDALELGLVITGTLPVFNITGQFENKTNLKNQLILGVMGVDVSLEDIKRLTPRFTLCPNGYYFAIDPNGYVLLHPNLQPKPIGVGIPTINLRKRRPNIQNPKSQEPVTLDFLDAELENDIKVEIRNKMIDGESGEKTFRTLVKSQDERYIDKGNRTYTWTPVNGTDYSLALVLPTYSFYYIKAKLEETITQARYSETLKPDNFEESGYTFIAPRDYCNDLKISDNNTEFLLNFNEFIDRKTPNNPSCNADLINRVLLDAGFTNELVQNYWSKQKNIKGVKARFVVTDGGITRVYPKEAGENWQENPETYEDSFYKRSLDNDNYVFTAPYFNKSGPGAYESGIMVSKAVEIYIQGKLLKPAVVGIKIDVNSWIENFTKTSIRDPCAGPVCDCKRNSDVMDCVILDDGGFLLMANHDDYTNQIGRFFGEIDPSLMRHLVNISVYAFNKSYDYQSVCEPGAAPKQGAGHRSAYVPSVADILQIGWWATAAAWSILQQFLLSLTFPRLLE
hCav1.2, sequence (P54289 957-1103 partner limits assumed): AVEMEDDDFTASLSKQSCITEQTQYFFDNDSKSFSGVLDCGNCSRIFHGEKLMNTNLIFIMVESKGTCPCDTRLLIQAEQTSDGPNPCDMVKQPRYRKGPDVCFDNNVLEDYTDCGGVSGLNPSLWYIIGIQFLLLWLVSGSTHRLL
hERG, sequence (Q12809 whole entry): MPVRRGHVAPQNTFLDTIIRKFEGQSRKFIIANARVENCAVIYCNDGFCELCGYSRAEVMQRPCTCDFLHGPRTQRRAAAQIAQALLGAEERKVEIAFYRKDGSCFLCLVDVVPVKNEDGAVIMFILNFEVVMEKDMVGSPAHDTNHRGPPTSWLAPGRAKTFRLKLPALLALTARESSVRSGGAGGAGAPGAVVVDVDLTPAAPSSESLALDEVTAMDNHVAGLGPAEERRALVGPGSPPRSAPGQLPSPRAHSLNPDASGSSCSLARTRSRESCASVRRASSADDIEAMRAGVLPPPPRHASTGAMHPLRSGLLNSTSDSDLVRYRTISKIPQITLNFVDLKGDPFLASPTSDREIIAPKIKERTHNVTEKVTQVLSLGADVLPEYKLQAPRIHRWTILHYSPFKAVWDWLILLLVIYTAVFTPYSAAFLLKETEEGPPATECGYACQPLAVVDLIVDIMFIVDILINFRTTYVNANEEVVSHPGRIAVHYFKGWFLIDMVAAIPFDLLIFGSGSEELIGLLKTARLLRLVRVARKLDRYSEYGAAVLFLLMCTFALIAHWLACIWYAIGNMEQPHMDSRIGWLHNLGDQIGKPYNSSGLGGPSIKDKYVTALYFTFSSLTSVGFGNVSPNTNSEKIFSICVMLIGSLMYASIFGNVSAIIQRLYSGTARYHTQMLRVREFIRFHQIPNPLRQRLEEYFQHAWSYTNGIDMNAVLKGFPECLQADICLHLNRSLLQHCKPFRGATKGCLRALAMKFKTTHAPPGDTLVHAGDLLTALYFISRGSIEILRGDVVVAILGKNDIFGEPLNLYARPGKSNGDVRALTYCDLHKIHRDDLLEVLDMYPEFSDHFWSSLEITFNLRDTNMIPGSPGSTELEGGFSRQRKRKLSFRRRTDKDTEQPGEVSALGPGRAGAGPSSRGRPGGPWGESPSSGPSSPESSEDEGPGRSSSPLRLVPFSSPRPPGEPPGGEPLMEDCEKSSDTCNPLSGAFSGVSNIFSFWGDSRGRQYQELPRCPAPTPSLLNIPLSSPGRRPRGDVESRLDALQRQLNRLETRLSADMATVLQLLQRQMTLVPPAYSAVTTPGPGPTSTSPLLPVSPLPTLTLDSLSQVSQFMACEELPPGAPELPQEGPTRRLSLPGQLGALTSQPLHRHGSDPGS

CC(C)COCC(CN(Cc1ccccc1)c1ccccc1)N1CCCC1 (stereo not drawn) [bep, bepridil]
IC50 [1]: 2450 nM
log IC50, peak hNav1.5 Na+ current inhibition ([1]; site_platform s01_p1): no inh.
Peak hNav1.5 Na+ current inhibition, Mean ([1]; site_platform s01_p1, 1.00E-08 mol/L): 27.2%
Peak hNav1.5 Na+ current inhibition, Mean ([1]; site_platform s01_p1, 3.00E-07 mol/L): 49.4%
log IC50, peak hNav1.5 Na+ current inhibition ([1]; site_platform s02_p2): no inh.
Peak hNav1.5 Na+ current inhibition, Mean ([1]; site_platform s02_p2, 1.00E-08 mol/L): 0.5%
Peak hNav1.5 Na+ current inhibition, Mean ([1]; site_platform s02_p2, 3.00E-07 mol/L): 5.1%
log IC50, peak hNav1.5 Na+ current inhibition ([1]; site_platform s04_p3): no inh.
Peak hNav1.5 Na+ current inhibition, Mean ([1]; site_platform s04_p3, 1.00E-08 mol/L): 7.9%
Peak hNav1.5 Na+ current inhibition, Mean ([1]; site_platform s04_p3, 3.00E-07 mol/L): 13.7%
log IC50, peak hNav1.5 Na+ current inhibition ([1]; site_platform s06_p4): no inh.
Peak hNav1.5 Na+ current inhibition, Mean [1, 6]: -6.3%
Peak hNav1.5 Na+ current inhibition, Mean [1, 7]: 0.9%
log IC50, peak hNav1.5 Na+ current inhibition ([1]; site_platform s07_p6): no inh.
Peak hNav1.5 Na+ current inhibition, Mean [1, 8]: -3.3%
Peak hNav1.5 Na+ current inhibition, Mean [1, 9]: -0.6%
nH, Hill slope, peak hNav1.5 inhibition ([1]; site_platform s10_p3): 0.57
Peak hNav1.5 Na+ current inhibition, Mean ([1]; site_platform s10_p3, 1.00E-08 mol/L): 3.5%
Peak hNav1.5 Na+ current inhibition, Mean ([1]; site_platform s10_p3, 3.00E-07 mol/L): 22.0%
IC50 ([1]; site_platform s10_p3, read-out: log IC50, peak hNav1.5 inhibition (converted)): 2690 nM
log IC50, peak hNav1.5 inhibition ([1]; site_platform s11_p1): no inh.
Peak hNav1.5 Na+ current inhibition, Mean ([1]; site_platform s11_p1, 1.00E-08 mol/L): 4.3%
Peak hNav1.5 Na+ current inhibition, Mean ([1]; site_platform s11_p1, 3.00E-07 mol/L): 10.4%
log IC50, peak hNav1.5 inhibition ([1]; site_platform s12_p2): no inh.
Peak hNav1.5 Na+ current inhibition, Mean ([1]; site_platform s12_p2, 1.00E-08 mol/L): 0.0%
Peak hNav1.5 Na+ current inhibition, Mean ([1]; site_platform s12_p2, 3.00E-07 mol/L): 0.0%
log IC50, peak hNav1.5 inhibition ([1]; site_platform s13_p2): no inh.
Peak hNav1.5 Na+ current inhibition, Mean [1, 10]: 3.2%
Peak hNav1.5 Na+ current inhibition, Mean [1, 11]: 6.7%
nH, Hill slope, peak hNav1.5 inhibition ([1]; site_platform s14_p1): 0.78
Peak hNav1.5 Na+ current inhibition, Mean [1, 12]: 6.0%
Peak hNav1.5 Na+ current inhibition, Mean [1, 13]: 17.8%
nH, Hill slope, peak hNav1.5 inhibition ([1]; site_platform s15_p1): 0.68
Peak hNav1.5 Na+ current inhibition, Mean ([1]; site_platform s15_p1, 1.00E-08 mol/L): 13.5%
Peak hNav1.5 Na+ current inhibition, Mean ([1]; site_platform s15_p1, 3.00E-07 mol/L): 51.4%
IC50 ([1]; site_platform s15_p1, read-out: log IC50, peak hNav1.5 inhibition (converted)): 324 nM
nH, Hill slope, peak hNav1.5 inhibition ([1]; site_platform s16_p3): 0.36
Peak hNav1.5 Na+ current inhibition, Mean ([1]; site_platform s16_p3, 1.00E-08 mol/L): 8.1%
Peak hNav1.5 Na+ current inhibition, Mean ([1]; site_platform s16_p3, 3.00E-07 mol/L): 26.6%
IC50 ([1]; site_platform s16_p3, read-out: log IC50, peak hNav1.5 inhibition (converted)): 4470 nM
nH, Hill slope, peak hNav1.5 inhibition ([1]; site_platform s17_p1): 1.09
Peak hNav1.5 Na+ current inhibition, Mean ([1]; site_platform s17_p1, 1.00E-08 mol/L): 2.7%
Peak hNav1.5 Na+ current inhibition, Mean ([1]; site_platform s17_p1, 3.00E-07 mol/L): 30.0%
IC50 ([1]; site_platform s17_p1, read-out: log IC50, peak hNav1.5 inhibition (converted)): 676 nM
log IC50, peak hNav1.5 inhibition ([1]; site_platform s18_p1): no inh.
Peak hNav1.5 Na+ current inhibition, Mean ([1]; site_platform s18_p1, 1.00E-08 mol/L): 54.7%
Peak hNav1.5 Na+ current inhibition, Mean ([1]; site_platform s18_p1, 3.00E-07 mol/L): 68.5%
nH, Hill slope, peak hNav1.5 inhibition ([1]; site_platform s19_p3): 0.50
Peak hNav1.5 Na+ current inhibition, Mean ([1]; site_platform s19_p3, 1.00E-08 mol/L): 2.2%
Peak hNav1.5 Na+ current inhibition, Mean ([1]; site_platform s19_p3, 3.00E-07 mol/L): 17.3%
IC50 ([1]; site_platform s19_p3, read-out: log IC50, peak hNav1.5 inhibition (converted)): 6920 nM
nH, Hill slope, late hNav1.5 inhibition ([2]; site_platform s06_p4): 1.86
Late hNav1.5 Na+ current inhibition, Mean [2, 6]: -0.5%
Late hNav1.5 Na+ current inhibition, Mean [2, 7]: 43.7%
IC50 ([2]; site_platform s06_p4, read-out: log IC50, late hNav1.5 inhibition (converted)): 363 nM
log IC50, late hNav1.5 inhibition ([2]; site_platform s07_p6): no inh.
Late hNav1.5 Na+ current inhibition, Mean [2, 8]: 5.5%
Late hNav1.5 Na+ current inhibition, Mean [2, 9]: 12.3%
log IC50, late hNav1.5 inhibition ([2]; site_platform s13_p2): no inh.
Late hNav1.5 Na+ current inhibition, Mean [2, 10]: 24.3%
Late hNav1.5 Na+ current inhibition, Mean [2, 11]: 29.9%
log IC50, late hNav1.5 inhibition ([2]; site_platform s14_p1): no inh.
Late hNav1.5 Na+ current inhibition, Mean [2, 12]: 54.2%
Late hNav1.5 Na+ current inhibition, Mean [2, 13]: 10.2%
TdP Risk Category [3]: High
Peak hCav1.2 Ca2+ current inhibition, Mean ([4]; site s01_p1, 1.00E-08 mol/L): 5.6%
Peak hCav1.2 Ca2+ current inhibition, Mean ([4]; site s01_p1, 3.00E-07 mol/L): 16.7%
nH, Hill slope ([4]; site s02_p2, corrected for rundown): 0.64
Peak hCav1.2 Ca2+ current inhibition, Mean ([4]; site s02_p2, corrected for rundown, 1.00E-08 mol/L): 4.4%
Peak hCav1.2 Ca2+ current inhibition, Mean ([4]; site s02_p2, corrected for rundown, 3.00E-07 mol/L): 34.4%
Peak hCav1.2 Ca2+ current inhibition, Mean ([4]; site s04_p3, 1.00E-08 mol/L): 12.6%
Peak hCav1.2 Ca2+ current inhibition, Mean ([4]; site s04_p3, 3.00E-07 mol/L): 17.5%
Peak hCav1.2 Ca2+ current inhibition, Mean ([4]; site s06_p4, 1.00E-08 mol/L): 5.9%
Peak hCav1.2 Ca2+ current inhibition, Mean ([4]; site s06_p4, 3.00E-07 mol/L): 13.9%
Peak hCav1.2 Ca2+ current inhibition, Mean ([4]; site s11_p1, 1.00E-08 mol/L): 13.2%
Peak hCav1.2 Ca2+ current inhibition, Mean ([4]; site s11_p1, 3.00E-07 mol/L): 21.4%
Peak hCav1.2 Ca2+ current inhibition, Mean ([4]; site s14_p1, 1.00E-08 mol/L): -0.1%
Peak hCav1.2 Ca2+ current inhibition, Mean ([4]; site s14_p1, 3.00E-07 mol/L): 8.2%
nH, Hill slope ([4]; site s16_p3): 0.51
Peak hCav1.2 Ca2+ current inhibition, Mean ([4]; site s16_p3, 1.00E-08 mol/L): 8.6%
Peak hCav1.2 Ca2+ current inhibition, Mean ([4]; site s16_p3, 3.00E-07 mol/L): 45.8%
Peak hCav1.2 Ca2+ current inhibition, Mean ([4]; site s18_p1, 1.00E-08 mol/L): 28.2%
Peak hCav1.2 Ca2+ current inhibition, Mean ([4]; site s18_p1, 3.00E-07 mol/L): 31.3%
inhibition at 1e-08 mol/L ([5]; site_platform s07_p5): 0.5%
inhibition at 4 min, 1e-08 mol/L ([5]; site_platform s10_p3): 1.5%
inhibition at 7 min, 1e-08 mol/L ([5]; site_platform s11_p1): 12%
inhibition at 7 min, 1e-08 mol/L ([5]; site_platform s14_p1): 41.9%
